In patent EP0908457B1, “3-(1,2-benzisothiazol- and isoxazol-5-Y1)-2,4(1H,3H)-pyrimidinedione or thione and 3-(1,2-benzisothiazol- and isoxazol-5-y1)-4(3H)-pyrimidinone or thione herbicidal agents” (BASF AKTIENGESELLSCHAFT, priority 1997, dated 1999):

What was measured:
[1] = tested on: Echinochloa oryzoides (Ard.) Fritsch.; assay: Preemergence weed control under flooded paddy conditions, ECHORC (Watergrass (Calif.)); type: in vivo; settings: preemergence, flooded paddy, rated three to four weeks after treatment
Cyperus iria = assay: Preemergence weed control under flooded paddy conditions, CYPIR (Rice Flatsedge); type: in vivo; settings: preemergence, flooded paddy, rated three to four weeks after treatment
[2] = tested on: Cyperus serotinus, Rottb.; assay: Preemergence weed control under flooded paddy conditions, CYPSE (Flatsedge); type: in vivo; settings: preemergence, rated three to four weeks after treatment
[3] = tested on: Monochoria vaginalis, Presl.; assay: Preemergence weed control under flooded paddy conditions, MOOVA (Monochoria); type: in vivo; settings: preemergence, flooded paddy, rated three to four weeks after treatment
Sagittaria pygmaea, L. = assay: Preemergence weed control under flooded paddy conditions, SAGPY (Arrowhead (Pygmaea)); type: in vivo; settings: preemergence, flooded paddy, rated three to four weeks after treatment
[4] = tested on: Oryza sativa, (L.) Tebonnet; assay: Rice tolerance to post-transplant applications under flooded paddy conditions (Example 187), ORYSAT (Rice, Tebonnet); settings: rated three to four weeks after treatment
Also: meaning of each grade not given here.

Row | Structure (SMILES) | herbicidal effect rating, ECHORC ([1]; Rate 0.0320 kg/ha) | herbicidal effect rating, ECHORC ([1]; Rate 0.0620 kg/ha) | herbicidal effect rating, ECHORC ([1]; Rate 0.1250 kg/ha) | herbicidal effect rating, ECHORC ([1]; Rate 0.2500 kg/ha) | herbicidal effect rating, CYPIR (Cyperus iria; Rate 0.0320 kg/ha) | herbicidal effect rating, CYPIR (Cyperus iria; Rate 0.0620 kg/ha) | herbicidal effect rating, CYPIR (Cyperus iria; Rate 0.1250 kg/ha) | herbicidal effect rating, CYPIR (Cyperus iria; Rate 0.2500 kg/ha) | herbicidal effect rating, CYPSE ([2]; Rate 0.0320 kg/ha) | herbicidal effect rating, CYPSE ([2]; Rate 0.0620 kg/ha) | herbicidal effect rating, CYPSE ([2]; Rate 0.1250 kg/ha) | herbicidal effect rating, CYPSE ([2]; Rate 0.2500 kg/ha) | herbicidal effect rating, MOOVA ([3]; Rate 0.0320 kg/ha) | herbicidal effect rating, MOOVA ([3]; Rate 0.0620 kg/ha) | herbicidal effect rating, MOOVA ([3]; Rate 0.1250 kg/ha) | herbicidal effect rating, MOOVA ([3]; Rate 0.2500 kg/ha) | herbicidal effect rating, SAGPY (Sagittaria pygmaea, L.; Rate 0.0320 kg/ha) | herbicidal effect rating, SAGPY (Sagittaria pygmaea, L.; Rate 0.0620 kg/ha) | herbicidal effect rating, SAGPY (Sagittaria pygmaea, L.; Rate 0.1250 kg/ha) | herbicidal effect rating, SAGPY (Sagittaria pygmaea, L.; Rate 0.2500 kg/ha) | other results
1 | Cn1c(C(F)(F)F)cc(=O)n(-c2ccc3snc(C#N)c3c2)c1=O [Example 373, 1,2-Benzisothiazole-3-carbonitrile, 5-[3,6-dihydro-3-methyl-2,6-dioxo-4-(trifluoromethyl)-1(2H)-pyrimidinyl]-] | 6.5 | 9.0 | 9.0 | 9.0 | 6.5 | 9.0 | 9.0 | 9.0 | 2.0 | 5.0 | 7.5 | 8.0 | 9.0 | 9.0 | 9.0 | 9.0 | 5.5 | 8.5 | 9.0 | 9.0 | herbicidal effect rating ORYSAT ([4]; Rate 0.0320 kg/ha): 5.5; herbicidal effect rating ORYSAT ([4]; Rate 0.0620 kg/ha): 6.5; herbicidal effect rating ORYSAT ([4]; Rate 0.1250 kg/ha): 6.0; herbicidal effect rating ORYSAT ([4]; Rate 0.2500 kg/ha): 8.0
2 | CNC(=O)OCc1nsc2ccc(-n3c(=O)cc(C(F)(F)F)n(C)c3=O)cc12 [Example 374, 2,4(1H,3H)-Pyrimidinedione, 3-[3-(hydroxymethyl)1,2-benzisothiazol-5-yl]-1-methyl-6-(trifluoromethyl)-, methylcarbamate (ester)] | 3.0 | 3.0 | 4.0 | 6.0 | 6.0 | 9.0 | 9.0 | 9.0 | 0.0 | 0.0 | 0.0 | 5.0 | 9.0 | 9.0 | 9.0 | 9.0 | 2.0 | 3.0 | 6.0 | 9.0 | herbicidal effect rating ORYSAT ([4]; Rate 0.0320 kg/ha): 4.0; herbicidal effect rating ORYSAT ([4]; Rate 0.0620 kg/ha): 4.0; herbicidal effect rating ORYSAT ([4]; Rate 0.1250 kg/ha): 6.0; herbicidal effect rating ORYSAT ([4]; Rate 0.2500 kg/ha): 7.0
3 | Cn1c(C(F)(F)F)cc(=O)n(-c2cc3c(CBr)nsc3cc2F)c1=O [Example 376, 2,4(1H,3H)-Pyrimidinedione, 3-[3-(bromomethyl)-6-fluoro-1,2-benzisothiazol-5-yl]-1-methyl-6-(trifluoromethyl)-] | 3.0 | 5.5 | 6.5 | 9.0 | 3.0 | 8.0 | 9.0 | 9.0 | 3.0 | 4.0 | 5.5 | 8.0 | 9.0 | 9.0 | 9.0 | 9.0 | 8.0 | 8.5 | 9.0 | 9.0 | herbicidal effect rating ORYSAT ([4]; Rate 0.0320 kg/ha): 4.0; herbicidal effect rating ORYSAT ([4]; Rate 0.0620 kg/ha): 6.0; herbicidal effect rating ORYSAT ([4]; Rate 0.1250 kg/ha): 6.0; herbicidal effect rating ORYSAT ([4]; Rate 0.2500 kg/ha): 8.5
4 | CCOP(=O)(Cc1nsc2cc(F)c(-n3c(=O)cc(C(F)(F)F)n(C)c3=O)cc12)OCC [Example 377, 1,2-Benzisothiazole-3-methanephosphonic acid, 5-[3,6-dihydro-3-methyl-2,6-dioxo-4-(trifluoromethyl)-1(2H)-pyrimidinyl]-6-fluoro-, diethyl ester] | 2.0 | 5.0 | 7.0 | 9.0 | 2.0 | 3.0 | 4.5 | 8.0 | 1.0 | 3.0 | 5.0 | 8.5 | 9.0 | 9.0 | 9.0 | 9.0 | 0.0 | 4.0 | 8.5 | 9.0 | herbicidal effect rating ORYSAT ([4]; Rate 0.0320 kg/ha): 5.5; herbicidal effect rating ORYSAT ([4]; Rate 0.0620 kg/ha): 6.5; herbicidal effect rating ORYSAT ([4]; Rate 0.1250 kg/ha): 8.0; herbicidal effect rating ORYSAT ([4]; Rate 0.2500 kg/ha): 9.0
5 | Cn1c(C(F)(F)F)cc(=O)n(-c2cc3c(CC#N)nsc3cc2F)c1=O [Example 379, 1,2-Benzisothiazole-3-acetonitrile, 5-[3,6-dihydro-3-methyl-2,6-dioxo-4-(trifluoromethyl)-1(2H)-pyrimidinyl]-6-fluoro-] | 2.0 | 5.0 | 7.5 | 8.0 | 5.5 | 7.5 | 9.0 | 9.0 | 2.5 | 6.5 | 8.5 | 8.5 | 9.0 | 9.0 | 9.0 | 9.0 | 3.5 | 6.5 | 9.0 | 9.0 | herbicidal effect rating ORYSAT ([4]; Rate 0.0320 kg/ha): 7.0; herbicidal effect rating ORYSAT ([4]; Rate 0.0620 kg/ha): 8.5; herbicidal effect rating ORYSAT ([4]; Rate 0.1250 kg/ha): 9.0; herbicidal effect rating ORYSAT ([4]; Rate 0.2500 kg/ha): 9.0
6 | Cn1c(C(F)(F)F)cc(=O)n(-c2ccc3snc(COS(=O)(=O)c4ccccc4)c3c2)c1=O [Example 382, 2,4(1H,3H)-Pyrimidinedione, 3-[3-(hydroxymethyl)-1,2-benzisothiazol-5-yl]-1-methyl-6-(trifluoromethyl)-, benzenesulfonate (ester)] | 0.0 | 3.0 | 4.0 | 7.0 | 5.0 | 6.0 | 7.0 | 9.0 | 0.0 | 0.0 | 7.0 | 7.0 | 9.0 | 9.0 | 9.0 | 9.0 | 3.0 | 4.0 | 7.0 | 9.0 | herbicidal effect rating ORYSAT ([4]; Rate 0.0320 kg/ha): 5.0; herbicidal effect rating ORYSAT ([4]; Rate 0.0620 kg/ha): 6.0; herbicidal effect rating ORYSAT ([4]; Rate 0.1250 kg/ha): 6.0; herbicidal effect rating ORYSAT ([4]; Rate 0.2500 kg/ha): 5.0
7 | CCS(=O)(=O)NC(=O)c1nsc2ccc(-n3c(=O)cc(C(F)(F)F)n(C)c3=O)cc12 [Example 383, 1,2-Benzisothiazole-3-carboxamide, 5-[3,6-dihydro-3-methyl-2,6-dioxo-4-(trifluoromethyl)-1(2H)-pyrimidinyl]-N-(ethylsulfonyl)-] | 4.0 | 6.5 | 7.5 | 8.0 | 2.5 | 7.0 | 7.0 | 8.0 | 4.5 | 5.5 | 7.5 | 9.0 | 9.0 | 9.0 | 9.0 | 9.0 | 3.0 | 7.5 | 9.0 | 9.0 | herbicidal effect rating ORYSAT ([4]; Rate 0.0320 kg/ha): 3.5; herbicidal effect rating ORYSAT ([4]; Rate 0.0620 kg/ha): 4.5; herbicidal effect rating ORYSAT ([4]; Rate 0.1250 kg/ha): 6.0; herbicidal effect rating ORYSAT ([4]; Rate 0.2500 kg/ha): 6.5
